What all share (type): cell-based
Assay [1] relates to Streptococcus pneumoniae 1016. In words: MIC, microtiter broth dilution (NCCLS M100-S14), S. pneumoniae 1016 (susceptible). As to conditions: Streptococcus pneumoniae 1016. The procedure, abridged: (§1)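 Stock solutions of 40 mg/ml in DMSO were used. MIC values came from microtiter-tray broth dilution following NCCLS M100-S14 guidelines.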
On the technique in general: Broth dilution looks for growth in wells or tubes with falling amounts of substance.

In assay [2] the test system is Haemophilus influenzae 1218. In words: MIC, microtiter broth dilution (NCCLS M100-S14), H. influenzae 1218 (susceptible). As to conditions: Haemophilus influenzae 1218. The procedure, abridged:
as §1

The subject of assay [3] is Streptococcus pneumoniae 1095. As to conditions: Streptococcus pneumoniae 1095; microtiter broth dilution. An outline of the steps: as §1
The subject of assay [4] is Streptococcus pneumoniae 1175. The conditions noted are these: Streptococcus pneumoniae 1175; microtiter broth dilution. The procedure, abridged: as §1
The test system of assay [5] is Streptococcus pyogenes 1079. In words: MIC, microtiter broth dilution (NCCLS M100-S14), S. pyogenes 1079 (ermB). The conditions noted are these: Streptococcus pyogenes 1079. The procedure, abridged:
as §1

In brackets after ≈: the same amount, converted by molar mass. A value given as a limit tells only on which side of the number the result lay.

Turning to `CC[C@H]1OC(=O)[C@H](C)C(=O)[C@H](C)[C@@H](O[C@@H]2O[C@H](C)C[C@H](N(C)C)[C@H]2O)[C@](C)(OC)C[C@@H](C)C(=O)[C@H](C)[C@H]2N(C3CN([C@H](C)c4ccnc5ncccc45)C3)C(=O)O[C@]12C` [Example 1.25, 3-descladinosyl-11,12-dideoxy-6-O-methyl-3-oxo-12,11-(oxycarbonyl-(1-(1R-(1,8-naphthyridin4-yl)-ethyl)-azetidin-3-yl)-imino)-erythromycin A], the “MIC S. pneumo. 1016” value in assay [1] is <0.06 µg/mL. Besides, the “MIC H. influenzae 1218” value in assay [2] is 0.5 µg/mL (≈ 0.607 µM). Also, the “MIC S. pneumo. 1095” value in assay [3] is <0.06 µg/mL. The “MIC S. pneumo. 1175” value in assay [4] was 0.25 µg/mL (≈ 0.303 µM). The “MIC S. pyogenes 1079” value in assay [5] came to 1 µg/mL (≈ 1.21 µM).
Turning to `CCC1OC(=O)C(C)C(=O)C(C)C(OC2OC(C)CC(N(C)C)C2O)C(C)(OC)CC(C)C(=O)C(C)C2N(C3CN(Cc4ccnc5cccnc45)C3)C(=O)OC12C` (stereo not shown) [Example 1.26, 3-descladinosyl-11,12-dideoxy-6-O-methyl-3-oxo-12,11-(oxycarbonyl-(1-((1,5-naphthyridin4-yl)-methyl)-azetidin-3-yl)-imino)-erythromycin A], the “MIC S. pneumo. 1016” value in assay [1] was <0.06 µg/mL. In assay [2], the “MIC H. influenzae 1218” value stood at 0.38 µg/mL (≈ 0.469 µM). Besides, the “MIC S. pneumo. 1095” value in assay [3] was <0.06 µg/mL. Besides, the “MIC S. pneumo. 1175” value in assay [4] was <0.06 µg/mL. The “MIC S. pyogenes 1079” value in assay [5] worked out at 1 µg/mL (≈ 1.23 µM).
For the molecule `CCC1OC(=O)C(C)C(=O)C(C)C(OC2OC(C)CC(N(C)C)C2O)C(C)(OC)CC(C)C(=O)C(C)C2N(C3CN(Cc4ccnc5ccncc45)C3)C(=O)OC12C` (stereo not shown) [Example 1.27, 3-descladinosyl-11,12-dideoxy-6-O-methyl-3-oxo-12,11-(oxycarbonyl-(1-((1,6-naphthyridin-4-yl)-methyl)-azetidin-3-yl)-imino)-erythromycin A], in assay [1], the “MIC S. pneumo. 1016” value was <0.06 µg/mL. Also, in assay [2], the “MIC H. influenzae 1218” value worked out at 0.5 µg/mL (≈ 0.617 µM). For the same molecule, the “MIC S. pneumo. 1095” value in assay [3] is <0.06 µg/mL. Also, the “MIC S. pneumo. 1175” value in assay [4] turned out to be 0.5 µg/mL (≈ 0.617 µM). In assay [5], the “MIC S. pyogenes 1079” value worked out at 2 µg/mL (≈ 2.47 µM).
On to `CCC1OC(=O)C(C)C(=O)C(C)C(OC2OC(C)CC(N(C)C)C2O)C(C)(OC)CC(C)C(=O)C(C)C2N(C3CN(Cc4ccc5nccnc5c4)C3)C(=O)OC12C` (stereo not shown) [Example 1.28, 3-descladinosyl-11,12-dideoxy-6-O-methyl-3-oxo-12,11-(oxycarbonyl-(1-((quinoxalin-6-yl)-methyl)-azetidin-3-yl)-imino)-erythromycin A], for which the “MIC S. pneumo. 1016” value in assay [1] was <0.06 µg/mL. Also, in assay [2], the “MIC H. influenzae 1218” value turned out to be 0.5 µg/mL (≈ 0.617 µM). For the same molecule, the “MIC S. pneumo. 1095” value in assay [3] was <0.06 µg/mL. In addition, in assay [4], the “MIC S. pneumo. 1175” value was found to be 4 µg/mL (≈ 4.94 µM). For the same molecule, the “MIC S. pyogenes 1079” value in assay [5] turned out to be 8 µg/mL (≈ 9.88 µM).
On to `CCC1OC(=O)C(C)C(=O)C(C)C(OC2OC(C)CC(N(C)C)C2O)C(C)(OC)CC(C)C(=O)C(C)C2N(C3CN(Cc4n[nH]c5ccccc45)C3)C(=O)OC12C` (stereo not shown) [Example 1.29, 3-descladinosyl-11,12-dideoxy-6-O-methyl-3-oxo-12,11-(oxycarbonyl-(1-((indazol-3-yl)-methyl)-azetidin-3-yl)-imino)-erythromycin A], for which the “MIC S. pneumo. 1016” value in assay [1] is <0.06 µg/mL. The “MIC H. influenzae 1218” value in assay [2] worked out at 0.5 µg/mL (≈ 0.627 µM). Further, the “MIC S. pneumo. 1095” value in assay [3] is <0.06 µg/mL. The “MIC S. pneumo. 1175” value in assay [4] is 1 µg/mL (≈ 1.25 µM). Besides, in assay [5], the “MIC S. pyogenes 1079” value amounted to 2 µg/mL (≈ 2.51 µM).
`CCC1OC(=O)C(C)(F)C(=O)C(C)C(OC2OC(C)CC(N(C)C)C2O)C(C)(OC)CC(C)C(=O)C(C)C2N(C3CN(C(C)c4ccnc5ncccc45)C3)C(=O)OC12C` (stereo not drawn) [Example 1.32, 3-descladinosyl-11,12-dideoxy-2-fluoro-6-O-methyl-3-oxo-12,11-(oxycarbonyl-(1-(1R-(1,8-naphthyridin-4-yl)-ethyl)-azetidin-3-yl)-imino)-erythromycin A]: in assay [1], the “MIC S. pneumo. 1016” value is <0.06 µg/mL. Also, the “MIC H. influenzae 1218” value in assay [2] was 0.5 µg/mL (≈ 0.594 µM). In assay [3], the “MIC S. pneumo. 1095” value is <0.06 µg/mL. The “MIC S. pneumo. 1175” value in assay [4] was 0.25 µg/mL (≈ 0.297 µM). Also, the “MIC S. pyogenes 1079” value in assay [5] worked out at 0.12 µg/mL (≈ 0.143 µM).
In the case of `CCC1OC(=O)C(C)(F)C(=O)C(C)C(OC2OC(C)CC(N(C)C)C2O)C(C)(OC)CC(C)C(=O)C(C)C2N(C3CN(Cc4ccnc5ncccc45)C3)C(=O)OC12C` (stereo not shown) [Example 1.33, 3-descladinosyl-11,12-dideoxy-2-fluoro-6-O-methyl-3-oxo-12,11-(oxycarbonyl-(1-((1,8-naphthyridin-4-yl)-methyl)-azetidin-3-yl)-imino)-erythromycin A], in assay [1], the “MIC S. pneumo. 1016” value is <0.06 µg/mL. Also, the “MIC H. influenzae 1218” value in assay [2] was 0.25 µg/mL (≈ 0.302 µM). In addition, the “MIC S. pneumo. 1095” value in assay [3] was <0.06 µg/mL. Also, the “MIC S. pneumo. 1175” value in assay [4] was <0.06 µg/mL. Besides, the “MIC S. pyogenes 1079” value in assay [5] turned out to be 0.25 µg/mL (≈ 0.302 µM).
As for `CCC1OC(=O)C(C)C(=O)C(C)C(OC2OC(C)CC(N(C)C)C2O)C(C)(OC)CC(C)C(=O)C(C)C2N(C3CN(Cc4ccc5nc(C)sc5n4)C3)C(=O)OC12C` (stereo not shown) [Example 1.34, (2-methyl-thiazolo[5,4-b]pyridin-5-yl)methyl], the “MIC S. pneumo. 1016” value in assay [1] is <0.06 µg/mL. For the same molecule, the “MIC H. influenzae 1218” value in assay [2] was 0.5 µg/mL (≈ 0.602 µM). For the same molecule, the “MIC S. pneumo. 1095” value in assay [3] was <0.06 µg/mL. In assay [4], the “MIC S. pneumo. 1175” value was found to be 0.12 µg/mL (≈ 0.145 µM). The “MIC S. pyogenes 1079” value in assay [5] came out at 32 µg/mL (≈ 38.6 µM).
Take `CCC1OC(=O)C(C)C(=O)C(C)C(OC2OC(C)CC(N(C)C)C2O)C(C)(OC)CC(C)C(=O)C(C)C2N(C3CN(Cc4ccnc5ncsc45)C3)C(=O)OC12C` (stereo not shown) [Example 1.35, 3-descladinosyl-11,12-dideoxy-6-O-methyl-3-oxo-12,11-(oxycarbonyl-(1-((thiazolo[4,5-b]pyridin-7-yl)-methyl)-azetidin-3-yl)-imino)erythromycin A]: the “MIC S. pneumo. 1016” value in assay [1] was <0.06 µg/mL. In addition, the “MIC H. influenzae 1218” value in assay [2] was found to be 1 µg/mL (≈ 1.23 µM). The “MIC S. pneumo. 1095” value in assay [3] is <0.06 µg/mL. Also, in assay [4], the “MIC S. pneumo. 1175” value was found to be 0.12 µg/mL (≈ 0.147 µM). For the same molecule, in assay [5], the “MIC S. pyogenes 1079” value turned out to be 4 µg/mL (≈ 4.9 µM).
On to `CCC1OC(=O)C(C)C(=O)C(C)C(OC2OC(C)CC(N(C)C)C2O)C(C)(OC)CC(C)C(=O)C(C)C2N(C3CN(Cc4cc(=O)[nH]c5ccc(Cl)cc45)C3)C(=O)OC12C` (stereo not shown) [Example 1.36, (6-chloro-1H-quinolin-2-on-4-yl)methyl], for which the “MIC S. pneumo. 1016” value in assay [1] is <0.06 µg/mL. For the same molecule, the “MIC H. influenzae 1218” value in assay [2] turned out to be 0.5 µg/mL (≈ 0.582 µM). Further, the “MIC S. pneumo. 1095” value in assay [3] is <0.06 µg/mL. Further, in assay [4], the “MIC S. pneumo. 1175” value was 0.12 µg/mL (≈ 0.14 µM). Moreover, in assay [5], the “MIC S. pyogenes 1079” value worked out at 8 µg/mL (≈ 9.31 µM).
For the molecule `CCC1OC(=O)C(C)C(=O)C(C)C(OC2OC(C)CC(N(C)C)C2O)C(C)(OC)CC(C)C(=O)C(C)C2N(C3CN(C(C)c4ccnc5cccnc45)C3)C(=O)OC12C` (stereo not drawn) [Example 1.37, 3-descladinosyl-11,12-dideoxy-6-O-methyl-3-oxo-12,11-(oxycarbonyl-(1-(1R-(1,5-naphthyridin-4-yl)-ethyl)-azetidin-3-yl)-imino)erythromycin A], the “MIC S. pneumo. 1016” value in assay [1] is <0.06 µg/mL. Moreover, the “MIC H. influenzae 1218” value in assay [2] was 1 µg/mL (≈ 1.21 µM). In assay [3], the “MIC S. pneumo. 1095” value is <0.06 µg/mL. Further, the “MIC S. pneumo. 1175” value in assay [4] came out at 0.25 µg/mL (≈ 0.303 µM). Further, the “MIC S. pyogenes 1079” value in assay [5] came to 4 µg/mL (≈ 4.85 µM).

Values taken from patent US7462600B2, “Macrolides” (Pfizer Inc, priority 2004, dated 2008).
